ChEMBL document CHEMBL5131536, “Novel Quinoline Compounds as EZH2 Inhibitors for Treating Cancer” (ACS Med Chem Lett, 2022)

Target: Histone-lysine N-methyltransferase EZH2 (Homo sapiens, UniProt Q15910)
Experiment: Inhibition of EZH2 in human G-401 cells assessed as reduction in H3K27 methylation incubated for 48 hrs by ELISA
Assay type: cell-based

Sequence of Histone-lysine N-methyltransferase EZH2 (Q15910 whole entry): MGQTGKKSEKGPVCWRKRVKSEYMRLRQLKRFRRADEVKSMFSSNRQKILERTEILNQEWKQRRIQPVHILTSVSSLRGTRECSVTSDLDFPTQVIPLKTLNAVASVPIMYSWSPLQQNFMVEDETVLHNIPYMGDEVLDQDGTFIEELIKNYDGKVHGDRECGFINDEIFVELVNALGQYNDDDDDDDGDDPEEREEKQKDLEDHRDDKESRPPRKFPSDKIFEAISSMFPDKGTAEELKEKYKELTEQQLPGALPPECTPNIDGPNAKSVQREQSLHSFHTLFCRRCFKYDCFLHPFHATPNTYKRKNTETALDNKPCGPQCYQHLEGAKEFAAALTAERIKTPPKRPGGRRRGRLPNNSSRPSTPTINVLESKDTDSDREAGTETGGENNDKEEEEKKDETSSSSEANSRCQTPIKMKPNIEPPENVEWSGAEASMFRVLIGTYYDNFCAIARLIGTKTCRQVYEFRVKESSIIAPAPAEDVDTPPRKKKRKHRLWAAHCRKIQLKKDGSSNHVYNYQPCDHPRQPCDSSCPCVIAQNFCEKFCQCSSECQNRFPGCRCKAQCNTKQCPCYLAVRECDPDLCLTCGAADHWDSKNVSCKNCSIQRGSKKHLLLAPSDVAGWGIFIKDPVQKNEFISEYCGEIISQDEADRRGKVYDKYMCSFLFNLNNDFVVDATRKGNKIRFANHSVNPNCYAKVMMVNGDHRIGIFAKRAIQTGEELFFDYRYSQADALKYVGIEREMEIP

IC50, < 10 nM:
Cc1ccc2ccc(N[C@H]3CC[C@H](CNc4ccc(CC(=O)NC5COC5)cn4)CC3)nc2c1Cl
Cc1ccc2ccc(N[C@H]3CC[C@H](CNc4ncc(C(O)C(=O)NC5COC5)cn4)CC3)nc2c1Cl (stereo partly specified)
Cc1ccc2ccc(N[C@H]3CC[C@H](CNc4ncc(C(F)(F)C(=O)NC5COC5)cn4)CC3)nc2c1Cl
Cc1ccc2ccc(N[C@H]3CC[C@H](CNc4ncc(CC(=O)NC5COC5)cn4)CC3)nc2c1Cl
Cc1ccc2ccc(N[C@H]3CC[C@H](CNc4ncc(C(CO)C(=O)NC5COC5)cn4)CC3)nc2c1Cl (stereo partly specified)
Cc1ccc2ccc(N[C@H]3CC[C@H](CNc4ncc(C(C#N)C(=O)NC5COC5)cn4)CC3)nc2c1Cl (stereo partly specified)
